For the assay, the target named is T1, SMARCA2 (Homo sapiens, UniProt P51531).
T1 construct: endogenous in cells; host or cells: HT1080 (CRISPR HiBiT knock-in clone, generated in house)
As to the kind of experiment: SMARCA2 HiBiT degradation assay (cellular). In kind it is cell-based. The conditions noted are these: table head names A549; for DC50: 6 h incubation, HiBiT-tagged SMARCA2, luminescence read-out, read-out: HiBit A549 SMARCA2 IP (nM) 6 h; for Emax: A549, 6 h incubation, Emax = amount of residual protein remaining in the cell following compound treatment. On the technique in general: HiBiT is a short tag that completes a luciferase, so light tracks the accessible tagged protein.

T1 sequence (P51531 whole entry): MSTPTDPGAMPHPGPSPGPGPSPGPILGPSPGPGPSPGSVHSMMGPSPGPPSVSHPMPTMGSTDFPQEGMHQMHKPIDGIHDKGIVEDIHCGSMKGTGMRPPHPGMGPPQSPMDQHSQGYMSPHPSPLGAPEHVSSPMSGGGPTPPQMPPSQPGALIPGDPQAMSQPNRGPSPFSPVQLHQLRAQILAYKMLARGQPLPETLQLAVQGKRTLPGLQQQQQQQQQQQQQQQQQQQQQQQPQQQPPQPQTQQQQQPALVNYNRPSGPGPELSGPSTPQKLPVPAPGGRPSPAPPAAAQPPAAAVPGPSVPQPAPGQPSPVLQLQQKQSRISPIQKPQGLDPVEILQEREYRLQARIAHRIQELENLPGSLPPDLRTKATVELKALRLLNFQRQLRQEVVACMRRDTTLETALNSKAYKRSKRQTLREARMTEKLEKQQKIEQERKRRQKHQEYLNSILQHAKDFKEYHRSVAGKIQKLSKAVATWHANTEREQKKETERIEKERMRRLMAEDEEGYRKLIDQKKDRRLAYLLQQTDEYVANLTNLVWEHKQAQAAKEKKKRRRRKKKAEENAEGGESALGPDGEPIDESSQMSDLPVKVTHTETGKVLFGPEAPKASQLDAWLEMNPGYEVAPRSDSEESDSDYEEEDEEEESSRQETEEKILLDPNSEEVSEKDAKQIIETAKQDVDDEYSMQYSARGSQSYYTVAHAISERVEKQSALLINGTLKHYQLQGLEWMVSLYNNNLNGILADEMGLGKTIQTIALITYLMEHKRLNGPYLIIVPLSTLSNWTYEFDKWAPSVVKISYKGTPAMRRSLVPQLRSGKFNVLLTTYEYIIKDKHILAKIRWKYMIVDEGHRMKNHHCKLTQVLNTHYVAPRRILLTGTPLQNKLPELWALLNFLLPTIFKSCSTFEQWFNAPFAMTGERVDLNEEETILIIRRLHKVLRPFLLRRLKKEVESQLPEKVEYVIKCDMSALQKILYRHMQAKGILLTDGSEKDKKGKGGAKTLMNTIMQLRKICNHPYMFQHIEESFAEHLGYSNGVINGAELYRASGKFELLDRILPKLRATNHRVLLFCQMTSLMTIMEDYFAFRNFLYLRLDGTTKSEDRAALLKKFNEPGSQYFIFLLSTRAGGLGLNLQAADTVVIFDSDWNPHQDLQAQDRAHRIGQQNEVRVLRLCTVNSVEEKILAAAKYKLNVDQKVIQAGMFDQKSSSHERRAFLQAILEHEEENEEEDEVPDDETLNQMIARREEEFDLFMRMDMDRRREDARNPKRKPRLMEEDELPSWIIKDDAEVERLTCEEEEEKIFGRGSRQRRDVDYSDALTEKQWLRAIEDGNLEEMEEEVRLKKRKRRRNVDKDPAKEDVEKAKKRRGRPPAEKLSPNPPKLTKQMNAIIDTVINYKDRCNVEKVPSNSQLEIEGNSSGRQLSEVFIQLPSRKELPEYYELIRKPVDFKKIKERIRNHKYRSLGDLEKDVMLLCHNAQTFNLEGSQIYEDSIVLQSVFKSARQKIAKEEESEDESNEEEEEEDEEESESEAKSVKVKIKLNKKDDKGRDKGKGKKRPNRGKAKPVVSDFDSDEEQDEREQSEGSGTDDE

As to `Nc1nnc(-c2ccccc2O)cc1N1CCC(C(=O)N2CCC(C(=O)N3CCN(c4ccc5c(c4)C(=O)N(C4CCC(=O)NC4=O)C5=O)CC3)CC2)(c2ccccc2)CC1` (centres unmarked) [Example 178, 5-(4-(1-(1-(3-amino-6-(2-hydroxyphenyl)pyridazin-4-yl)-4-phenylpiperidine-4-carbonyl)piperidine-4-carbonyl)piperazin-1-yl)-2-(2,6-dioxopiperidin-3-yl)isoindoline-1,3-dione], the DC50 turned out to be 187 nM and the Emax is 46%.
The corresponding values for `Nc1nnc(-c2ccccc2O)cc1N1CCN(c2ccccc2)C(C(=O)NCC2CCC(NC(=O)C3CCN(c4ccc5c(c4)C(=O)N(C4CCC(=O)NC4=O)C5=O)CC3)CC2)C1` (centres unmarked) [Example 85, 4-[3-amino-6-(2-hydroxyphenyl)pyridazin-4-yl]-N-[[4-[[1-[2-(2,6-dioxopiperidin-3-yl)-1,3-dioxoisoindol-5-yl]piperidine-4-carbonyl]amino]cyclohexyl]methyl]-1-phenylpiperazine-2-carboxamide] are 92 nM and 43%.
In the case of `Nc1nnc(-c2ccccc2O)cc1N1CCN(c2ccccc2)C(C(=O)NC2CCN(C(=O)C3CCN(c4ccc5c(c4)C(=O)N(C4CCC(=O)NC4=O)C5=O)CC3)CC2)C1` (centres unmarked) [Example 87, 4-(3-amino-6-(2-hydroxyphenyl)pyridazin-4-yl)-N-(1-(1-(2-(2,6-dioxopiperidin-3-yl)-1,3-dioxoisoindolin-5-yl)piperidine-4-carbonyl)piperidin-4-yl)-1-phenylpiperazine-2-carboxamide], the DC50 was 81 nM and the Emax amounted to 48%.
In the case of `Nc1nnc(-c2ccccc2O)cc1N1CC2CCC(C1)N2c1cccc(OCCN2CCN(CCCOC3CCN(c4ccc5c(c4)C(=O)N(C4CCC(=O)NC4=O)C5=O)CC3)CC2)c1` (racemic) [Example 36, rac-5-[4-[3-[4-[2-[3-[3-[3-amino-6-(2-hydroxyphenyl)pyridazin-4-yl]-3,8-diazabicyclo[3.2.1]octan-8-yl]phenoxy]ethyl]piperazin-1-yl]propoxy]-1-piperidyl]-2-(2,6-dioxo-3-piperidyl)isoindoline-1,3-dione], the DC50 was 16 nM and the Emax worked out at 27%.
For `Nc1nnc(-c2ccccc2O)cc1N1CC2CCC(C1)N2c1cccc(CN2CCN(C(=O)CC3CCN(c4ccc5c(c4)C(=O)N(C4CCC(=O)NC4=O)C5=O)CC3)CC2)c1` (racemic) [Example 48, rac-5-[4-[2-[4-[[3-[3-[3-Amino-6-(2-hydroxyphenyl)pyridazin-4-yl]-3,8-diazabicyclo[3.2.1]octan-8-yl]phenyl]methyl]piperazin-1-yl]-2-oxo-ethyl]-1-piperidyl]-2-(2,6-dioxo-3-piperidyl)isoindoline-1,3-dione] the same measures were 15 nM and 45%.
As to `Nc1nnc(-c2ccccc2O)cc1N1CC2CCC(C1)N2c1cccc(CN2CCN(C(=O)CN3CCN(c4ccc(OC5CCC(=O)NC5=O)cc4)CC3)CC2)c1` (racemic) [Example 195, rac-3-[4-[4-[2-[4-[[3-[3-[3-Amino-6-(2-hydroxyphenyl)pyridazin-4-yl]-3,8-diazabicyclo[3.2.1]octan-8-yl]phenyl]methyl]piperazin-1-yl]-2-oxo-ethyl]piperazin-1-yl]phenoxy]piperidine-2,6-dione], the DC50 amounted to 72 nM and the Emax came to 60%.
As for `Nc1nnc(-c2ccccc2O)cc1N1CCC(NC(=O)CCN2CCC(c3ccc(OC4CCC(=O)NC4=O)cc3)CC2)(c2ccccc2)CC1` (centres unmarked) [Example 115, N-(1-(3-amino-6-(2-hydroxyphenyl)pyridazin-4-yl)-4-phenylpiperidin-4-yl)-3-(4-(4-((2,6-dioxopiperidin-3-yl)oxy)phenyl)piperidin-1-yl)propanamide diformate], the DC50 came to 810 nM and the Emax was found to be 63%.
Regarding `Nc1nnc(-c2ccccc2O)cc1N1CC(Oc2cccc(N3CCN(C(=O)CCCCCCCCCNc4cccc5c4C(=O)N(C4CCC(=O)NC4=O)C5=O)CC3)c2)C1` (centres unmarked) [Example 39, 4-[[10-[4-[3-[1-[3-amino-6-(2-hydroxyphenyl)pyridazin-4-yl]azetidin-3-yl]oxyphenyl]piperazin-1-yl]-10-oxo-decyl]amino]-2-(2,6-dioxo-3-piperidyl)isoindoline-1,3-dione], the DC50 is 718 nM and the Emax was 63%.
Turning to `Nc1nnc(-c2ccccc2O)cc1N1CC(Oc2cccc(N3CCN(C(=O)C4CCN(c5ccc6c(c5)C(=O)N(C5CCC(=O)NC5=O)C6=O)CC4)CC3)c2)C1` (racemic) [Example 152, rac-5-[4-[4-[3-[1-[3-amino-6-(2-hydroxyphenyl)pyridazin-4-yl]azetidin-3-yl]oxyphenyl]piperazine-1-carbonyl]-1-piperidyl]-2-(2,6-dioxo-3-piperidyl)isoindoline-1,3-dione], the DC50 came out at 5 nM and the maximal effect (Emax) came out at 42%.
With `Nc1nnc(-c2ccccc2O)cc1N1CC(Oc2cccc(CN3CCN(C(=O)CCCCCCNc4cccc5c4C(=O)N(C4CCC(=O)NC4=O)C5=O)CC3)c2)C1` (centres unmarked) [Example 30, 4-[[7-[4-[[3-[1-[3-amino-6-(2-hydroxyphenyl)pyridazin-4-yl]azetidin-3-yl]oxyphenyl]methyl]piperazin-1-yl]-7-oxo-heptyl]amino]-2-(2,6-dioxo-3-piperidyl)isoindoline-1,3-dione], the DC50 came out at 92 nM and the Emax was found to be 63%.
Consider `Nc1nnc(-c2ccccc2O)cc1N1CCC(CNC(=O)CC2CCN(c3ccc4c(c3)C(=O)N(C3CCC(=O)NC3=O)C4=O)CC2)(c2ccccc2)CC1` (centres unmarked) [Example 77, N-((1-(3-amino-6-(2-hydroxyphenyl)pyridazin-4-yl)-4-phenylpiperidin-4-yl)methyl)-2-(1-(2-(2,6-dioxopiperidin-3-yl)-1,3-dioxoisoindolin-5-yl)piperidin-4-yl)acetamide], for which the DC50 was determined as 77 nM and the maximal response (Emax) worked out at 57%.
`Nc1nnc(-c2ccccc2O)cc1N1CCC2(CC1)CN(c1cccc(OCCN3CCN(C(=O)C4CCN(c5ccc6c(c5)C(=O)N(C5CCC(=O)NC5=O)C6=O)CC4)CC3)c1)CCO2` (centres unmarked) [Example 83, 5-(4-(4-(2-(3-(9-(3-amino-6-(2-hydroxyphenyl)pyridazin-4-yl)-1-oxa-4,9-diazaspiro[5.5]undecan-4-yl)phenoxy)ethyl)piperazine-1-carbonyl)piperidin-1-yl)-2-(2,6-dioxopiperidin-3-yl)isoindoline-1,3-dione]: the DC50 worked out at 273 nM and the Emax worked out at 59%.
`CN(C(=O)C1CCN(Cc2cccc(N3C4CCC3CN(c3cc(-c5ccccc5O)nnc3N)C4)c2)CC1)C1CCN(c2ccc3c(c2)C(=O)N(C2CCC(=O)NC2=O)C3=O)CC1` (racemic) [Example 118, rac-1-[[3-[3-[3-amino-6-(2-hydroxyphenyl)pyridazin-4-yl]-3,8-diazabicyclo[3.2.1]octan-8-yl]phenyl]methyl]-N-[1-[2-(2,6-dioxo-3-piperidyl)-1,3-dioxo-isoindolin-5-yl]-4-piperidyl]-N-methyl-piperidine-4-carboxamide]: the DC50 amounted to 11 nM and the Emax is 26%.

One may read the Emax as the maximal effect, on the per cent scale that the assay sets.

The values are drawn from patent publication US20230024096A1, “BIFUNCTIONAL COMPOUNDS FOR THE TREATMENT OF CANCER” (Hoffmann-La Roche Inc., priority 2019, published 2023).
